Molecular target: T1, SIRT1 (Homo sapiens, UniProt Q96EB6)
T1 sequence (Q96EB6 1-747): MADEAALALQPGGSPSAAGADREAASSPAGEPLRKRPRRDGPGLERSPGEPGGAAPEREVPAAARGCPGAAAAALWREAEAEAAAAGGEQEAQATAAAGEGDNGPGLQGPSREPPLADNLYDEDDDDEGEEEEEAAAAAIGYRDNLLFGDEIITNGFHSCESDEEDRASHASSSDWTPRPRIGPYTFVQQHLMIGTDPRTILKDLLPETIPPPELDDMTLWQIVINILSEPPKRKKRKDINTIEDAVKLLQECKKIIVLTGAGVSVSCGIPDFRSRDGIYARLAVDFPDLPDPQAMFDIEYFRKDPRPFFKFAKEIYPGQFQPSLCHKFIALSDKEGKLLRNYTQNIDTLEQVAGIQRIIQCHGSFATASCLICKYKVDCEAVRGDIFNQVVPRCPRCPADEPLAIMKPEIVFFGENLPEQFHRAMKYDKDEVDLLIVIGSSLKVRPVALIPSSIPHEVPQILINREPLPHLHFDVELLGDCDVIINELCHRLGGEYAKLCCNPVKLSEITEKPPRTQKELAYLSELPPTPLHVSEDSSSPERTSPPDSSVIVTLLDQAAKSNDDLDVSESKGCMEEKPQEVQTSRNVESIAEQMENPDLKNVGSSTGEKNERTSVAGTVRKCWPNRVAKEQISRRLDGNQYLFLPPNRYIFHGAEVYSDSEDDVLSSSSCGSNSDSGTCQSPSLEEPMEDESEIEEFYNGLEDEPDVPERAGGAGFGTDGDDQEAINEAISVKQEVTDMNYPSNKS
Experiment: Mass spectrometry based assay to identify modulators of SIRT1 activity (deacetylation of p53-based acetylated peptide)
Format: biochemical
Details: 10 nM SIRT1, 0.5 μM peptide substrate, 120 μM βNAD+, 25 minutes at 25° C.; for EC1.5 μM: SIRT1 activation

| SMILES | % Fold Act. (percent maximum fold activation) | EC1.5 μM |
| --- | --- | --- |
| O=C(Nc1cccc2c(=O)[nH]c(-c3cccc(C(F)F)c3)nc12)c1cnccn1 [Compound 311] | B (Fold Activation<200%) | C (EC1.5>25 μM) |
| Cn1c(-c2ccccc2OC(F)F)nc2c(NC(=O)c3cnccn3)cccc2c1=O [Compound 312] | A (Fold activation>200%) | A (EC1.5<1.0 μM) |
| O=C(Nc1cccc2c(=O)[nH]c(-c3ccccc3OC(F)F)nc12)c1cnccn1 [Compound 313] | A (Fold activation>200%) | A (EC1.5<1.0 μM) |
| Cn1c(-c2ccccc2C(F)F)nc2c(NC(=O)c3cnccn3)cccc2c1=O [Compound 314] | A (Fold activation>200%) | A (EC1.5<1.0 μM) |
| Cn1c(-c2cccc(OC(F)F)c2)nc2c(NC(=O)c3cnccn3)cccc2c1=O [Compound 315] | A (Fold activation>200%) | A (EC1.5<1.0 μM) |
| O=C(Nc1cccc2c(=O)[nH]c(-c3cccc(OC(F)F)c3)nc12)c1cnccn1 [Compound 316] | B (Fold Activation<200%) | C (EC1.5>25 μM) |
| O=C(Nc1cccc2c(=O)[nH]c(-c3ccccc3C(F)(F)F)nc12)c1cnccn1 [Compound 317] | A (Fold activation>200%) | A (EC1.5<1.0 μM) |
| O=C(Nc1cccc2c(=O)[nH]c(-c3ccccc3OC(F)(F)F)nc12)c1cnccn1 [Compound 318] | A (Fold activation>200%) | A (EC1.5<1.0 μM) |
| O=C(Nc1ccccn1)c1cccc2c(=O)[nH]c(-c3cccc(C(F)F)c3)nc12 [Compound 319] | B (Fold Activation<200%) | C (EC1.5>25 μM) |
| O=C(Nc1ccccn1)c1cccc2c(=O)[nH]c(-c3ccccc3OC(F)(F)F)nc12 [Compound 320] | A (Fold activation>200%) | A (EC1.5<1.0 μM) |
| O=C(Nc1ccccn1)c1cccc2c(=O)[nH]c(-c3ccccc3C(F)(F)F)nc12 [Compound 321] | A (Fold activation>200%) | B (EC1.5 1-25 μM) |
| Cn1c(-c2ccccc2C(F)F)nc2c(C(=O)Nc3ccccn3)cccc2c1=O [Compound 322] | A (Fold activation>200%) | B (EC1.5 1-25 μM) |
| Cn1c(-c2cccc(C(F)F)c2)nc2c(C(=O)Nc3ccccn3)cccc2c1=O [Compound 323] | B (Fold Activation<200%) | C (EC1.5>25 μM) |
| O=C(Nc1ccccn1)c1cccc2c(=O)[nH]c(-c3ccccc3C(F)F)nc12 [Compound 324] | A (Fold activation>200%) | A (EC1.5<1.0 μM) |
| O=C(Nc1ccccn1)c1cccc2c(=O)[nH]c(-c3cccc(OC(F)F)c3)nc12 [Compound 325] | B (Fold Activation<200%) | C (EC1.5>25 μM) |
| Cn1c(-c2cccc(OC(F)F)c2)nc2c(C(=O)Nc3ccccn3)cccc2c1=O [Compound 326] | A (Fold activation>200%) | A (EC1.5<1.0 μM) |

| SMILES | % Fold Act. (percent maximum fold activation) | EC1.5 μM |
| --- | --- | --- |
| Cn1c(-c2ccccc2OC(F)F)nc2c(C(=O)Nc3ccccn3)cccc2c1=O [Compound 327] | A (Fold activation>200%) | B (EC1.5 1-25 μM) |
| O=C(Nc1ccccn1)c1cccc2c(=O)[nH]c(-c3ccccc3OC(F)F)nc12 [Compound 328] | A (Fold activation>200%) | B (EC1.5 1-25 μM) |
| O=C(Nc1cccc2c(=O)[nH]c(-c3ccccc3C(F)F)nc12)c1cnccn1 [Compound 329] | A (Fold activation>200%) | A (EC1.5<1.0 μM) |
| Cn1c(-c2cccc(C(F)(F)F)c2)nc2c(NC(=O)c3cccc(N4CCOCC4)c3)cccc2c1=O [Compound 330] | A (Fold activation>200%) | A (EC1.5<1.0 μM) |
| CN1CCCC1C(=O)Nc1cccc2c(=O)n(C)c(-c3cccc(C(F)(F)F)c3)nc12 (centres unmarked) [Compound 331] | B (Fold Activation<200%) | B (EC1.5 1-25 μM) |
| Cn1c(-c2cccc(C(F)(F)F)c2)nc2c(NC(=O)c3cccc(CN4CCOCC4)n3)cccc2c1=O [Compound 332] | A (Fold activation>200%) | A (EC1.5<1.0 μM) |
| Cn1c(-c2cccc(C(F)(F)F)c2)nc2c(NC(=O)c3cccc(CN4CCCC4)n3)cccc2c1=O [Compound 333] | A (Fold activation>200%) | A (EC1.5<1.0 μM) |
| Cn1c(-c2cccc(C(F)(F)F)c2)nc2c(NC(=O)c3cccnc3OCC(O)CO)cccc2c1=O (centres unmarked) [Compound 334] | A (Fold activation>200%) | B (EC1.5 1-25 μM) |
| Cn1c(-c2cccc(C(F)(F)F)c2)nc2c(NC(=O)c3cccc(OCC(O)CO)n3)cccc2c1=O (centres unmarked) [Compound 335] | A (Fold activation>200%) | A (EC1.5<1.0 μM) |
| Cn1c(-c2cccc(C(F)(F)F)c2)nc2c(NC(=O)c3cncc(N4CCOCC4)n3)cccc2c1=O [Compound 336] | A (Fold activation>200%) | A (EC1.5<1.0 μM) |
| Cn1c(-c2cccc(C(F)(F)F)c2)nc2c(NC(=O)c3cccc(N4CCCC4)c3)cccc2c1=O [Compound 337] | B (Fold Activation<200%) | C (EC1.5>25 μM) |
| Cn1c(-c2cccc(C(F)(F)F)c2)nc2c(NC(=O)c3cccc(CN4CCOCC4)c3)cccc2c1=O [Compound 338] | A (Fold activation>200%) | A (EC1.5<1.0 μM) |
| Cn1c(-c2cccc(C(F)(F)F)c2)nc2c(NC(=O)C3CCC(=O)N3)cccc2c1=O (centres unmarked) [Compound 339, N-(3-methyl-4-oxo-2-(3-(trifluoromethyl)phenyl)-3,4-dihydroquinazolin-8-yl)-5-oxopyrrolidine-2-carboxamide] | B (Fold Activation<200%) | C (EC1.5>25 μM) |
| CN1C(=O)CCC1C(=O)Nc1cccc2c(=O)n(C)c(-c3cccc(C(F)(F)F)c3)nc12 (centres unmarked) [Compound 340] | B (Fold Activation<200%) | C (EC1.5>25 μM) |
| Cn1c(-c2cccc(C(F)(F)F)c2)nc2c(NC(=O)c3cccc(N4CCOCC4)n3)cccc2c1=O [Compound 341] | A (Fold activation>200%) | A (EC1.5<1.0 μM) |

From patent publication US9326986B2, “Quinazolinone, quinolone and related analogs as sirtuin modulators” (GLAXOSMITHKLINE LLC, priority 2008, dated 2016)
